This note sets out measurements from patent US8796289B2 (AbbVie Inc., priority 2011, dated 2014).

In this experiment the target is GST-tagged-Wee1 kinase (Homo sapiens, UniProt P30291). As to the kind of experiment: Wee1 time-resolved fluorescence equilibrium binding assay (displacement of Oregon Green-labeled ATP-competitive kinase probe). The method, then: Wee1 kinase was assayed using a time-resolved fluorescence equilibrium binding assay monitoring displacement of a rapidly reversible Oregon Green-labeled ATP-competitive kinase probe (N-(2-(2-(2-(4-(4-(5-chloro-4-(2-(1-hydroxycyclobutyl)thiazol-5-yl)-1H-pyrrolo[2,3-b]pyridin-2-yl)phenyl)piperazin-1-yl)ethoxy)ethoxy)ethyl)-2′,7′-difluoro-3′,6′-dihydroxy-3-oxo-3H-spiro[isobenzofuran-1,9′-xanthene]-5-carboxamide) by competitive Wee1 inhibitors.
Sequence of GST-tagged-Wee1 kinase (P30291 whole entry): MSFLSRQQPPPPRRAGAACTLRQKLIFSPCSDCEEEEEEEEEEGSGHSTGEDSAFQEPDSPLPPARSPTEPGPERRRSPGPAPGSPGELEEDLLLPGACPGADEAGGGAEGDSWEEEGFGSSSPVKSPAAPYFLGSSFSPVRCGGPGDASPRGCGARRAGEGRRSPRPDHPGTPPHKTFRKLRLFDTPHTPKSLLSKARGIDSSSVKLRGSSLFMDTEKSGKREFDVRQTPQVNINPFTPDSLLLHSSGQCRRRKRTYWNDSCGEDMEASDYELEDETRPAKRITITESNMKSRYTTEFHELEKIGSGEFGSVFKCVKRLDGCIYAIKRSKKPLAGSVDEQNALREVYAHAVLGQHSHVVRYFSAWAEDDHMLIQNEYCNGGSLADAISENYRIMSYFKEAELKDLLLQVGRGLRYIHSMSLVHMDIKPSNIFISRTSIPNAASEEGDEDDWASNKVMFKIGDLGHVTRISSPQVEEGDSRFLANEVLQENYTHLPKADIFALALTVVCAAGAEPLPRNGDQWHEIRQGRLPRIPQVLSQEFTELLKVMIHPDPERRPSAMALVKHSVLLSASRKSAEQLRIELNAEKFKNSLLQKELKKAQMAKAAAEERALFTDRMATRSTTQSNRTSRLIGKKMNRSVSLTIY
For the compound `CCc1nn(-c2c(Cl)cccc2Cl)c(=O)c2cnc(Nc3ccc(N4CCNCC4)cc3)nc12` [Example 409, 6-(2,6-dichlorophenyl)-8-ethyl-2-{[4-(piperazin-1-yl)phenyl]amino}pyrimido[4,5-d]pyridazin-5(6H)-one], the affinity corresponds to a Ki of 1 nM.

In turn, `C=CCn1nc(-c2ccccc2)c2nc(Nc3ccc(N4CCN(C(C)C)CC4)cc3)ncc2c1=O` [Example 139, 6-allyl-2-{[4-(4-isopropylpiperazin-1-yl)phenyl]amino}-8-phenylpyrimido[4,5-d]pyridazin-5(6H)-one] gave a Ki of 5 nM.

`CN1CCN(c2ccc(Nc3ncc4c(=O)n(-c5ccccc5)nc(-c5ccccc5)c4n3)cc2)CC1` [Example 27, 2-{[4-(4-methylpiperazin-1-yl)phenyl]amino}-6,8-diphenylpyrimido[4,5-d]pyridazin-5(6H)-one] returned an inhibitory constant (Ki) of 2 nM.

The compound `CC(=O)c1cccc(-c2nn(-c3c(Cl)cccc3Cl)c(=O)c3cnc(Nc4ccc(N5CCN(C)CC5)cc4)nc23)c1` [Example 185, 8-(3-acetylphenyl)-6-(2,6-dichlorophenyl)-2-{[4-(4-methylpiperazin-1-yl)phenyl]amino}pyrimido[4,5-d]pyridazin-5(6H)-one] showed a Ki of 0.04 nM.

With `CN1CCN(c2ccc(Nc3ncc4c(=O)n(-c5c(Cl)cccc5Cl)nc(-c5cccc(C(=O)N6CCC6)c5)c4n3)cc2)CC1` [Example 216, 8-[3-(azetidin-1-ylcarbonyl)phenyl]-6-(2,6-dichlorophenyl)-2-{[4-(4-methylpiperazin-1-yl)phenyl]amino}pyrimido[4,5-d]pyridazin-5(6H)-one], affinity was put at a Ki of 0.1 nM.

In turn, `Cc1cccc(Cl)c1-n1nc(C)c2nc(Nc3ccc(NC4CCNCC4)cc3)ncc2c1=O` [Example 524, 6-(2-chloro-6-methylphenyl)-8-methyl-2-{[4-(piperidin-4-ylamino)phenyl]amino}pyrimido[4,5-d]pyridazin-5(6H)-one] gave an inhibition constant Ki of 0.3 nM.

In the case of `CN1CCN(c2ccc(Nc3ncc4c(=O)n(-c5c(Cl)cccc5Cl)nc(-c5cnn(CCCl)c5)c4n3)cc2)CC1` [Example 200, 8-[1-(2-chloroethyl)-1H-pyrazol-4-yl]-6-(2,6-dichlorophenyl)-2-{[4-(4-methylpiperazin-1-yl)phenyl]amino}pyrimido[4,5-d]pyridazin-5(6H)-one], the affinity corresponds to a Ki of 0.3 nM.

The compound `CN1CCC(n2nc(-c3ccccn3)c3nc(Nc4ccc5c(c4)CNCC5(C)C)ncc3c2=O)CC1` [Example 329, 2-[(4,4-dimethyl-1,2,3,4-tetrahydroisoquinolin-7-yl)amino]-6-(1-methylpiperidin-4-yl)-8-(pyridin-2-yl)pyrimido[4,5-d]pyridazin-5(6H)-one] gave a Ki of 27 nM.

In turn, `Cn1cnc(-c2nn(-c3c(Cl)cccc3Cl)c(=O)c3cnc(Nc4ccc5c(c4)CNCC5)nc23)c1` [Example 342, 6-(2,6-dichlorophenyl)-8-(1-methyl-1H-imidazol-4-yl)-2-(1,2,3,4-tetrahydroisoquinolin-7-ylamino)pyrimido[4,5-d]pyridazin-5(6H)-one] registered a Ki of 1 nM.

For the compound `CC(=O)N1CCN(c2ccc(Nc3ncc4c(=O)n(-c5c(Cl)cccc5Cl)nc(-c5ccncc5)c4n3)cc2)CC1` [Example 378, 2-{[4-(4-acetylpiperazin-1-yl)phenyl]amino}-6-(2,6-dichlorophenyl)-8-(pyridin-4-yl)pyrimido[4,5-d]pyridazin-5(6H)-one], the Ki stood at 0.49 nM.

For `Cc1cc(Nc2ncc3c(=O)n(-c4ccccc4C)nc(-c4ccccc4)c3n2)ccc1N1CCCN(C(C)C)CC1` [Example 116, 2-{[4-(4-isopropyl-1,4-diazepan-1-yl)-3-methylphenyl]amino}-6-(2-methylphenyl)-8-phenylpyrimido[4,5-d]pyridazin-5(6H)-one], affinity was put at a Ki of 0.4 nM.

`CC(=O)N1Cc2cc(Nc3ncc4c(=O)n(-c5c(Cl)cccc5Cl)nc(-c5ccncc5)c4n3)ccc2C2(CC2)C1` [Example 379, 2-[(2′-acetyl-2′,3′-dihydro-1′H-spiro[cyclopropane-1,4′-isoquinolin]-7′-yl)amino]-6-(2,6-dichlorophenyl)-8-(pyridin-4-yl)pyrimido[4,5-d]pyridazin-5(6H)-one] showed an inhibition constant Ki of 0.45 nM.

Consider `CCc1nn(-c2c(Cl)cccc2Cl)c(=O)c2cnc(Nc3ccc(N4C[C@H]5C[C@@H]4CN5)cc3)nc12` [Example 468, 2-({4-[(1R,4R)-2,5-diazabicyclo[2.2.1]hept-2-yl]phenyl}amino)-6-(2,6-dichlorophenyl)-8-ethylpyrimido[4,5-d]pyridazin-5(6H)-one], for which the affinity, expressed as Ki, was 0.69 nM.

`C=CCn1nc(-c2ccco2)c2nc(Nc3ccc4c(c3)CN(C)CC4)ncc2c1=O` [Example 258, 8-(furan-2-yl)-2-[(2-methyl-1,2,3,4-tetrahydroisoquinolin-7-yl)amino]-6-(prop-2-en-1-yl)pyrimido[4,5-d]pyridazin-5(6H)-one] yielded an inhibition constant (Ki) of 2 nM.

Turning to `Cc1nn(-c2ncccc2Cl)c(=O)c2cnc(Nc3ccc(N4CCNCC4)cc3)nc12` [Example 399, 6-(3-chloropyridin-2-yl)-8-methyl-2-{[4-(piperazin-1-yl)phenyl]amino}pyrimido[4,5-d]pyridazin-5(6H)-one], the inhibitory constant (Ki) was determined as 18 nM.

In the case of `Cc1nn(-c2c(Cl)cccc2Cl)c(=O)c2cnc(Nc3cccc(C(=O)N4CCS(=O)(=O)CC4)c3)nc12` [Example 529, 6-(2,6-dichlorophenyl)-2-({3-[(1,1-dioxidothiomorpholin-4-yl)carbonyl]phenyl}amino)-8-methylpyrimido[4,5-d]pyridazin-5(6H)-one], the Ki amounted to 9.4 nM.

For `Cc1ccccc1-n1nc(-c2ccco2)c2nc(Nc3ccc(N4CCN(C(C)C)CC4)cc3)ncc2c1=O` [Example 107, 8-(2-furyl)-2-{[4-(4-isopropylpiperazin-1-yl)phenyl]amino}-6-(2-methylphenyl)pyrimido[4,5-d]pyridazin-5(6H)-one], the affinity, expressed as Ki, was 1 nM.

`O=c1c2cnc(Nc3ccc(N4CCNCC4)cc3)nc2c(-c2ccccn2)nn1-c1c(Cl)cccc1Cl` [Example 284, 6-(2,6-dichlorophenyl)-2-{[4-(piperazin-1-yl)phenyl]amino}-8-(pyridin-2-yl)pyrimido[4,5-d]pyridazin-5(6H)-one] registered a Ki of 0.36 nM.

`O=c1c2cnc(Nc3ccc4c(c3)CNCC4)nc2c(-c2ccccn2)nn1-c1c(Cl)cccc1Cl` [Example 217, 6-(2,6-dichlorophenyl)-8-(pyridin-2-yl)-2-(1,2,3,4-tetrahydroisoquinolin-7-ylamino)pyrimido[4,5-d]pyridazin-5(6H)-one] returned a Ki of 0.1 nM.

Compound `CN1CCN(c2ccc(Nc3ncc4c(=O)n(-c5c(Cl)cccc5Cl)nc(-c5cccnc5Cl)c4n3)cc2)CC1` [Example 81, 8-(2-chloropyridin-3-yl)-6-(2,6-dichlorophenyl)-2-{[4-(4-methylpiperazin-1-yl)phenyl]amino}pyrimido[4,5-d]pyridazin-5(6H)-one] yielded a Ki of 4 nM.

On to `Cc1ccccc1-n1nc(-c2ccccc2)c2nc(Nc3ccc(S(=O)(=O)N4CCOCC4)cc3)ncc2c1=O` [Example 109, 6-(2-methylphenyl)-2-{[4-(morpholin-4-ylsulfonyl)phenyl]amino}-8-phenylpyrimido[4,5-d]pyridazin-5(6H)-one], for which the Ki is above 3140 nM.

In turn, `O=C1CCCN1c1ccc(-c2nn(-c3c(Cl)cccc3Cl)c(=O)c3cnc(Nc4ccc5c(c4)CNCC5)nc23)cc1` [Example 247, 6-(2,6-dichlorophenyl)-8-[4-(2-oxopyrrolidin-1-yl)phenyl]-2-(1,2,3,4-tetrahydroisoquinolin-7-ylamino)pyrimido[4,5-d]pyridazin-5(6H)-one] registered an inhibitory constant (Ki) of 0.2 nM.

As to `CN1CCN(c2ccc(Nc3ncc4c(=O)n(-c5c(Cl)cccc5Cl)nc(C5CCC5)c4n3)cc2)CC1` [Example 278, 8-cyclobutyl-6-(2,6-dichlorophenyl)-2-{[4-(4-methylpiperazin-1-yl)phenyl]amino}pyrimido[4,5-d]pyridazin-5(6H)-one], the inhibitory constant (Ki) stood at 0.83 nM.

Regarding `Cc1nn(-c2c(Cl)cccc2Cl)c(=O)c2cnc(Nc3ccc4c(c3)CNC4(C)C)nc12` [Example 489, 6-(2,6-dichlorophenyl)-2-[(1,1-dimethyl-2,3-dihydro-1H-isoindol-5-yl)amino]-8-methylpyrimido[4,5-d]pyridazin-5(6H)-one], the affinity, expressed as Ki, was 0.089 nM.

The compound `CN1CCN(c2ccc(Nc3ncc4c(=O)n(-c5ccccc5Cl)nc(-c5ccccc5)c4n3)cc2)CC1` [Example 29, 6-(2-chlorophenyl)-2-{[4-(4-methylpiperazin-1-yl)phenyl]amino}-8-phenylpyrimido[4,5-d]pyridazin-5(6H)-one] returned a Ki below 1 nM.

`CN1CCN(c2ccc(Nc3ncc4c(=O)n(-c5c(Cl)cccc5Cl)nc(-c5cc[nH]n5)c4n3)cc2)CC1` [Example 231, 6-(2,6-dichlorophenyl)-2-{[4-(4-methylpiperazin-1-yl)phenyl]amino}-8-(1H-pyrazol-3-yl)pyrimido[4,5-d]pyridazin-5(6H)-one]: the inhibitory constant (Ki) was 0.1 nM.

For the compound `O=c1c2cnc(Nc3ccc4c(c3)CNCC43CC3)nc2c(C2CCC2)nn1-c1c(Cl)cccc1Cl` [Example 281, 8-cyclobutyl-6-(2,6-dichlorophenyl)-2-(2′,3′-dihydro-1′H-spiro[cyclopropane-1,4′-isoquinolin]-7′-ylamino)pyrimido[4,5-d]pyridazin-5(6H)-one], the affinity, expressed as Ki, was 0.53 nM.

In turn, `CC(=O)c1cccc(-c2nn(-c3c(Cl)cccc3Cl)c(=O)c3cnc(Nc4ccc(N5CCN(C)CC5)cc4)nc23)n1` [Example 175, 8-(6-acetylpyridin-2-yl)-6-(2,6-dichlorophenyl)-2-{[4-(4-methylpiperazin-1-yl)phenyl]amino}pyrimido[4,5-d]pyridazin-5(6H)-one] gave an inhibition constant (Ki) of 0.2 nM.

Compound `CN1CCN(c2ccc(Nc3ncc4c(=O)n(-c5ccccc5Cl)nc(-c5ccc(-c6ncccn6)cc5)c4n3)cc2)CC1` [Example 61, 6-(2-chlorophenyl)-2-{[4-(4-methylpiperazin-1-yl)phenyl]amino}-8-[4-(pyrimidin-2-yl)phenyl]pyrimido[4,5-d]pyridazin-5(6H)-one] registered a Ki below 1 nM.

The term Ki denotes a dissociation constant, usually derived from enzyme kinetics or from competition with a known ligand.
